{"source": "ChEMBL document CHEMBL1133826", "about": "“Design, synthesis, and biological activity of diiminoisoindolines as complement component 3a antagonists” (Bioorg Med Chem Lett, 2001)", "key": {"[1]": {"target": "T1, C3a anaphylatoxin chemotactic receptor (Homo sapiens, UniProt Q16581)", "T1 sequence (Q16581 whole entry)": "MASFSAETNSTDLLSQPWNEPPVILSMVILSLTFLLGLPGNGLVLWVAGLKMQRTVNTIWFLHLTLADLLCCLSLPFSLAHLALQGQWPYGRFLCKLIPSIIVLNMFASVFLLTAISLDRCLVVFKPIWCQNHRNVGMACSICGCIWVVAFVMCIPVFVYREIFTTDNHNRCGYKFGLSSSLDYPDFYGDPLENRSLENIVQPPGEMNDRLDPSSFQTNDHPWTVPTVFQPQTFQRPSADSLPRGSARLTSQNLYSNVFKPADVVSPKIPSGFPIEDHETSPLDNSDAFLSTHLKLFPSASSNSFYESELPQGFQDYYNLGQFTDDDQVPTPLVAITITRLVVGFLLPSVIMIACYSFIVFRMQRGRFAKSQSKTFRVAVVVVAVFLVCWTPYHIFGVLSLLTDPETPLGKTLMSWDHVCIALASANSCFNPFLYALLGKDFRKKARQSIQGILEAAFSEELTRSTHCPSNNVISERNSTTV", "assay": "Inhibition of complement component 3a (C3a) binding to C3a receptor in human neutrophil based assay; call rule not given here"}, "Homo sapiens [2]": {"species_on_record": "Homo sapiens", "assay": "Inhibitory concentration against C3a receptor induced chemotaxis in human eosinophils", "type": "functional, organism-based"}, "[3]": {"target": "T1, C3a anaphylatoxin chemotactic receptor", "assay": "Concentration required to inhibit complement component 3a (C3a) binding to C3a receptor in human neutrophil based assay; Not active at 25 uM"}, "Homo sapiens [4]": {"species_on_record": "Homo sapiens", "assay": "Percent inhibition against C3a receptor induced calcium mobilization in human neutrophil at the dose of 25 uM", "type": "functional"}, "Rattus norvegicus [5]": {"test_system": "Rattus norvegicus", "assay": "Percent inhibition against C3a receptor induced wheal formation in rat at the dose of 30 mg/Kg administered intraperitoneally"}, "Homo sapiens [6]": {"species_on_record": "Homo sapiens", "assay": "Concentration required for 50% inhibition of binding against C3a receptor induced calcium mobilization in human neutrophil", "type": "functional, organism-based"}, "Rattus norvegicus [7]": {"test_system": "Rattus norvegicus", "assay": "Percent inhibition against C3a receptor induced wheal formation in rat at the dose of 30 mg/Kg administered orally"}, "Rattus norvegicus [8]": {"test_system": "Rattus norvegicus", "assay": "Percent inhibition against C3a receptor induced wheal formation in rat at the dose of 15 mg/Kg administered orally"}, "Homo sapiens [9]": {"species_on_record": "Homo sapiens", "assay": "Inhibitory concentration against C3a receptor induced chemotaxis in human eosinophils; Not active at 25 uM", "type": "functional, organism-based"}, "Homo sapiens [10]": {"species_on_record": "Homo sapiens", "assay": "Percent inhibition against C3a receptor induced chemotaxis in human eosinophils at the dose of 25 uM", "type": "functional"}}, "data": [{"smiles": "CN(C)CCOc1ccc2c(c1)/C(=N/CCc1ccc(F)cc1)N=C2NCCc1ccc(F)cc1", "values": [{"measurement": "IC50", "setting": "[1]", "result": 5.36, "unit": "µM"}, {"measurement": "IC50", "setting": "Homo sapiens [2]", "result": 7.8, "unit": "µM"}]}, {"smiles": "Fc1ccc(CC/N=C2\\N=C(NCCc3ccc(F)cc3)c3nccnc32)cc1", "values": [{"measurement": "IC50", "setting": "[3]", "result": "Not Active"}]}, {"smiles": "CC(C)NC1=N/C(=N\\CCc2ccc(Cl)cc2)c2ccccc21", "values": [{"measurement": "IC50", "setting": "[1]", "result": 8.45, "unit": "µM"}]}, {"smiles": "CCCOc1ccc2c(c1)/C(=N/CCc1ccc(F)cc1)N=C2NCCc1ccc(F)cc1", "values": [{"measurement": "IC50", "setting": "[1]", "result": 5.97, "unit": "µM"}, {"measurement": "IC50", "setting": "Homo sapiens [2]", "result": 6.1, "unit": "µM"}, {"measurement": "inhibition at 25 µM", "setting": "Homo sapiens [4]", "result": 79, "unit": "%"}]}, {"smiles": "N=C1N=C(NCCc2ccc(Cl)cc2)c2ccccc21", "values": [{"measurement": "IC50", "setting": "[3]", "result": "Not Active"}]}, {"smiles": "Cc1ccc(CC/N=C2\\N=C(NCCc3ccc(C)cc3)c3ccccc32)cc1", "values": [{"measurement": "IC50", "setting": "[1]", "result": 6.14, "unit": "µM"}, {"measurement": "IC50", "setting": "Homo sapiens [2]", "result": 6.5, "unit": "µM"}, {"measurement": "inhibition", "setting": "Rattus norvegicus [5]", "result": 38, "unit": "%"}, {"measurement": "IC50", "setting": "Homo sapiens [6]", "result": 3.3, "unit": "µM"}, {"measurement": "inhibition", "setting": "Rattus norvegicus [7]", "result": 67, "unit": "%"}]}, {"smiles": "CC(C/N=C1\\N=C(NCC(C)c2ccc(Cl)cc2)c2ccccc21)c1ccc(Cl)cc1", "note": "(stereo unspecified)", "values": [{"measurement": "IC50", "setting": "[1]", "result": 5.9, "unit": "µM"}, {"measurement": "inhibition at 25 µM", "setting": "Homo sapiens [4]", "result": 69, "unit": "%"}]}, {"smiles": "Cc1ccc(C/N=C2\\N=C(NCc3ccc(C)cc3)c3cc([N+](=O)[O-])ccc32)cc1", "values": [{"measurement": "IC50", "setting": "[3]", "result": "Not Active"}]}, {"smiles": "Cc1ccc(CC/N=C2\\N=C(NCCc3ccc(C)cc3)c3cc(Cl)c(Cl)cc32)cc1", "values": [{"measurement": "IC50", "setting": "[1]", "result": 48, "unit": "µM"}]}, {"smiles": "Cc1ccc(C/N=C2\\N=C(NCc3ccc(C)cc3)c3ccccc32)cc1", "values": [{"measurement": "inhibition", "setting": "Rattus norvegicus [8]", "result": 30, "unit": "%"}, {"measurement": "IC50", "setting": "[1]", "result": 1.7, "unit": "µM"}, {"measurement": "inhibition", "setting": "Rattus norvegicus [5]", "result": 64, "unit": "%"}, {"measurement": "IC50", "setting": "Homo sapiens [6]", "result": 2, "unit": "µM"}, {"measurement": "inhibition", "setting": "Rattus norvegicus [7]", "result": 61, "unit": "%"}]}, {"smiles": "CC(C)/N=C1\\N=C(NC(C)C)c2ccccc21", "values": [{"measurement": "IC50", "setting": "[3]", "result": "Not Active"}]}, {"smiles": "Clc1cccc(CC/N=C2\\N=C(NCCc3cccc(Cl)c3)c3ccccc32)c1", "values": [{"measurement": "inhibition", "setting": "Rattus norvegicus [8]", "result": 28, "unit": "%"}, {"measurement": "IC50", "setting": "[1]", "result": 7.48, "unit": "µM"}, {"measurement": "inhibition", "setting": "Rattus norvegicus [5]", "result": 72, "unit": "%"}, {"measurement": "IC50", "setting": "Homo sapiens [9]", "result": "Not Active"}, {"measurement": "IC50", "setting": "Homo sapiens [6]", "result": 5.4, "unit": "µM"}, {"measurement": "inhibition", "setting": "Rattus norvegicus [7]", "result": 55, "unit": "%"}]}, {"smiles": "Fc1ccc(CC/N=C2\\N=C(NCCc3ccc(F)cc3)c3ccccc32)cc1", "values": [{"measurement": "inhibition", "setting": "Rattus norvegicus [8]", "result": 44, "unit": "%"}, {"measurement": "IC50", "setting": "[1]", "result": 11.4, "unit": "µM"}, {"measurement": "IC50", "setting": "Homo sapiens [2]", "result": 6.5, "unit": "µM"}, {"measurement": "inhibition", "setting": "Rattus norvegicus [5]", "result": 73, "unit": "%"}, {"measurement": "IC50", "setting": "Homo sapiens [6]", "result": 3.1, "unit": "µM"}, {"measurement": "inhibition", "setting": "Rattus norvegicus [7]", "result": 72, "unit": "%"}]}, {"smiles": "Cc1ccc(CC/N=C2/CCC(NCCc3ccc(C)cc3)=N2)cc1", "values": [{"measurement": "IC50", "setting": "[3]", "result": "Not Active"}]}, {"smiles": "COc1ccc2c(c1)/C(=N/CCc1ccc(C)cc1)N=C2NCCc1ccc(C)cc1", "values": [{"measurement": "inhibition at 25 µM", "setting": "Homo sapiens [10]", "result": 37, "unit": "%"}, {"measurement": "IC50", "setting": "[1]", "result": 12.6, "unit": "µM"}, {"measurement": "IC50", "setting": "Homo sapiens [6]", "result": 3.8, "unit": "µM"}]}, {"smiles": "CC(=O)Nc1ccc2c(c1)/C(=N\\Cc1ccc(C)cc1)N=C2NCc1ccc(C)cc1", "values": [{"measurement": "IC50", "setting": "[1]", "result": 32, "unit": "µM"}]}, {"smiles": "Clc1ccc(CC/N=C2\\N=C(NCCc3ccc(Cl)cc3)c3ccccc32)cc1", "values": [{"measurement": "IC50", "setting": "[1]", "result": 7.16, "unit": "µM"}, {"measurement": "IC50", "setting": "Homo sapiens [2]", "result": 10.2, "unit": "µM"}, {"measurement": "inhibition", "setting": "Rattus norvegicus [5]", "result": 26, "unit": "%"}, {"measurement": "IC50", "setting": "Homo sapiens [6]", "result": 8.2, "unit": "µM"}, {"measurement": "inhibition", "setting": "Rattus norvegicus [7]", "result": 63, "unit": "%"}]}, {"smiles": "Fc1ccc(CC/N=C2\\N=C(NCCc3ccc(F)cc3)c3cnccc32)cc1", "values": [{"measurement": "IC50", "setting": "[1]", "result": 13.4, "unit": "µM"}]}]}
